From PubChem BioAssay (NCI)
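Exposure lasted 48 hours, with cells grown in 96-well plates and compounds tested at five concentrations. At the TGI there is no net growth.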

Legend:
Experiment in all cases: NCI anticancer screen, dose series, 48 h
[1] = system: OVCAR-4 ovarian
[2] = system: OVCAR-5 ovarian
[3] = system: EKVX NSCLC
[4] = system: DU-145 prostate
[5] = system: HCC-2998 colon
[6] = system: M14 melanoma
[7] = system: KM12 colon
[8] = system: MDA-MB-435
[9] = system: SNB-19 CNS
[10] = system: A498 renal
[11] = system: SW-620 colon
[12] = system: SF-268 CNS
[13] = system: HOP-62 NSCLC
[14] = system: UACC-257 melanoma
[15] = system: SK-MEL-5 melanoma
[16] = system: U251 CNS
[17] = system: MCF7 breast
[18] = system: HCT-116 colon
[19] = system: HCT-15 colon
[20] = system: UACC-62 melanoma
[21] = system: SF-295 CNS
[22] = system: A549 NSCLC
[23] = system: CAKI-1 renal
[24] = system: ACHN renal
[25] = system: HL-60(TB) leukemia
[26] = system: COLO 205 colon
[27] = system: PC-3 prostate
[28] = system: RPMI-8226 leukemia
[29] = system: HT29 colon
[30] = system: SK-MEL-28 melanoma
[31] = system: MOLT-4 leukemia
[32] = system: OVCAR-8 ovarian
[33] = system: IGROV1 ovarian
[34] = system: BT-549 breast
[35] = system: MALME-3M melanoma
[36] = system: NCI-H522 lung
[37] = system: SF-539 CNS
[38] = system: SK-OV-3 ovarian
[39] = system: SNB-75 CNS
[40] = system: NCI-H460 lung
[41] = system: OVCAR-3 ovarian
[42] = system: SN12C renal
[43] = system: HOP-92 NSCLC
[44] = system: 786-0 renal
[45] = system: RXF 393 renal
[46] = system: UO-31 renal
[47] = system: HS 578T breast
[48] = system: MDA-N
[49] = system: TK-10 renal
[50] = system: NCI-H23 lung
[51] = system: LOX IMVI melanoma
[52] = system: MDA-MB-231 breast
[53] = system: SR leukemia
[54] = system: K-562 leukemia
[55] = system: T-47D breast
[56] = system: NCI-H226 lung
[57] = system: SK-MEL-2 melanoma
[58] = system: CCRF-CEM leukemia
[59] = system: NCI/ADR-RES ovarian

C=CCOC(C)(C)C1=CCC(C)CC1 (centres undefined)
TGI [1]: > 100 µM
TGI [2]: > 100 µM
TGI [3]: > 100 µM
TGI [4]: > 100 µM
TGI [5]: > 100 µM
TGI [6]: > 100 µM
TGI [7]: > 100 µM
TGI [8]: > 100 µM
TGI [9]: > 100 µM
TGI [10]: > 100 µM
TGI [11]: > 100 µM
TGI [12]: > 100 µM
TGI [13]: > 100 µM
TGI [14]: > 100 µM
TGI [15]: > 100 µM
TGI [16]: > 100 µM
TGI [17]: > 100 µM
TGI [18]: > 100 µM
TGI [19]: > 100 µM
TGI [20]: > 100 µM
TGI [21]: > 100 µM
TGI [22]: > 100 µM
TGI [23]: > 100 µM
TGI [24]: > 100 µM
TGI [25]: > 100 µM
TGI [26]: > 100 µM
TGI [27]: > 100 µM
TGI [28]: > 100 µM
TGI [29]: > 100 µM
TGI [30]: > 100 µM
TGI [31]: > 100 µM
TGI [32]: > 100 µM
TGI [33]: > 100 µM
TGI [34]: > 100 µM
TGI [35]: > 100 µM
TGI [36]: > 100 µM
TGI [37]: > 100 µM
TGI [38]: > 100 µM
TGI [39]: > 100 µM
TGI [40]: > 100 µM
TGI [41]: > 100 µM
TGI [42]: > 100 µM
TGI [43]: > 100 µM
TGI [44]: > 100 µM
TGI [45]: > 100 µM
TGI [46]: > 100 µM
TGI [47]: > 100 µM
TGI [48]: > 100 µM
TGI [49]: > 100 µM
TGI [50]: > 100 µM

CC1(C)N=C(/C(Cl)=[N+](/[O-])C(=O)c2ccc(Cl)cc2)C(C)(C)N1O
TGI [1]: 68.5 µM
TGI [2]: 42.5 µM
TGI [3]: > 100 µM
TGI [4]: > 100 µM
TGI [5]: 63 µM
TGI [6]: 32.1 µM
TGI [7]: > 100 µM
TGI [8]: 52.4 µM
TGI [9]: > 100 µM
TGI [11]: 44.9 µM
TGI [12]: 89.2 µM
TGI [13]: > 100 µM
TGI [51]: 20.4 µM
TGI [14]: 38.1 µM
TGI [52]: 40 µM
TGI [15]: 43.2 µM
TGI [16]: 55.5 µM
TGI [17]: 32.7 µM
TGI [18]: 32.5 µM
TGI [19]: 35.8 µM
TGI [21]: > 100 µM
TGI [22]: > 100 µM
TGI [23]: 42.7 µM
TGI [24]: > 100 µM
TGI [53]: > 100 µM
TGI [25]: 60.7 µM
TGI [26]: 34.2 µM
TGI [27]: 37.5 µM
TGI [28]: 72.6 µM
TGI [29]: 43 µM
TGI [54]: > 100 µM
TGI [30]: 37.3 µM
TGI [55]: 95.1 µM
TGI [32]: 45.3 µM
TGI [33]: > 100 µM
TGI [35]: 35.9 µM
TGI [37]: 44 µM
TGI [38]: > 100 µM
TGI [56]: 72.6 µM
TGI [57]: > 100 µM
TGI [40]: > 100 µM
TGI [41]: 32.4 µM
TGI [58]: 45.7 µM
TGI [42]: 47 µM
TGI [43]: 31.4 µM
TGI [45]: 38 µM
TGI [46]: > 100 µM
TGI [59]: 63.8 µM
TGI [47]: > 100 µM
TGI [48]: 32.4 µM
TGI [49]: 38.8 µM
TGI [50]: 48.6 µM

BrC1(c2ccccc2)C[n+]2c(-c3ccccc3)cc(-c3ccccc3)cc2-c2ccccc21 (centres undefined)
TGI [1]: 28 µM
TGI [2]: 4.1 µM
TGI [3]: 18.8 µM
TGI [4]: 13.2 µM
TGI [5]: 0.742 µM
TGI [6]: 15.5 µM
TGI [7]: 1.34 µM
TGI [8]: 0.538 µM
TGI [9]: 17.5 µM
TGI [10]: 9.32 µM
TGI [11]: 11.4 µM
TGI [12]: 2.96 µM
TGI [13]: 7.41 µM
TGI [51]: 1.82 µM
TGI [14]: 2.55 µM
TGI [52]: 1.63 µM
TGI [15]: 0.366 µM
TGI [16]: 1.2 µM
TGI [17]: 0.735 µM
TGI [18]: 8.32 µM
TGI [19]: 12 µM
TGI [21]: 5.68 µM
TGI [22]: 9.77 µM
TGI [23]: 9.66 µM
TGI [24]: 14 µM
TGI [53]: > 42.5 µM
TGI [25]: 0.538 µM
TGI [26]: 0.318 µM
TGI [27]: 3.45 µM
TGI [28]: 1.13 µM
TGI [29]: 3.46 µM
TGI [54]: 1.48 µM
TGI [30]: 21.2 µM
TGI [31]: 6.38 µM
TGI [32]: 6.37 µM
TGI [33]: 5.14 µM
TGI [34]: 1.85 µM
TGI [35]: 13.2 µM
TGI [36]: 11.3 µM
TGI [37]: 11.4 µM
TGI [56]: 12.2 µM
TGI [39]: 0.621 µM
TGI [57]: 1.08 µM
TGI [40]: 6.99 µM
TGI [41]: 0.466 µM
TGI [58]: 21.2 µM
TGI [42]: 16.7 µM
TGI [43]: 3.7 µM
TGI [44]: 13.4 µM
TGI [45]: 0.635 µM
TGI [46]: 3.31 µM
TGI [59]: 65.5 µM
TGI [47]: 0.872 µM
TGI [48]: 1.69 µM
TGI [49]: 20.6 µM
TGI [50]: 34.5 µM

COc1cc(C2c3cc4c(cc3[C@@H](Nc3ccc(F)cc3)C3COC[C@H]23)OCO4)cc(OC)c1O (some centres undefined)
TGI [1]: > 25 µM
TGI [2]: 14.1 µM
TGI [3]: > 25 µM
TGI [5]: > 25 µM
TGI [6]: > 25 µM
TGI [7]: > 25 µM
TGI [8]: > 25 µM
TGI [9]: 16.2 µM
TGI [11]: > 25 µM
TGI [12]: > 25 µM
TGI [13]: > 25 µM
TGI [14]: > 25 µM
TGI [52]: 15.1 µM
TGI [15]: > 25 µM
TGI [16]: 18 µM
TGI [17]: > 25 µM
TGI [18]: 7.9 µM
TGI [19]: 18.9 µM
TGI [21]: 5.32 µM
TGI [22]: 10.6 µM
TGI [24]: 6.21 µM
TGI [53]: 5.5 µM
TGI [25]: 2.29 µM
TGI [26]: > 25 µM
TGI [27]: > 25 µM
TGI [28]: 13.1 µM
TGI [29]: 8.82 µM
TGI [54]: 20.7 µM
TGI [30]: > 25 µM
TGI [31]: 0.993 µM
TGI [55]: > 25 µM
TGI [32]: > 25 µM
TGI [33]: > 25 µM
TGI [36]: > 25 µM
TGI [37]: 3.49 µM
TGI [38]: > 25 µM
TGI [39]: 17 µM
TGI [40]: 3.83 µM
TGI [58]: 8.45 µM
TGI [42]: 23.1 µM
TGI [44]: 6.35 µM
TGI [46]: 4.57 µM
TGI [59]: > 25 µM
TGI [47]: 4.21 µM
TGI [48]: > 25 µM
TGI [49]: > 25 µM
